In patent US7598234B2, “Steroid derived antibiotics” (Brigham Young University, priority 1998, dated 2009):
Converted amounts (≈) assume the structure as drawn.

Tests used:
E. coli (ATCC 10798) [1] = test: MIC and MBC measurement with E. coli (ATCC 10798); type: cell-based, Escherichia coli
Excerpt: (§1) General: Microorganisms. Reference strains were purchased from the American Type Culture Collection (Rockville, Md.) or Bactrol disks from Difeo Laboratories (Detroit, Mich.). The following specific ATCC strains were used: 10798 Escherichia coli, 25922 Escherichia coli, 13883 Klebsiella pneumoniae, 27853 Pseudomonas aeruginosa, 14028 Salmonella typhimurium, 29212 Enterococcus faecalis, 25923 Staphylococcus aureus, 19615 Streptococcus pyogenes, and 90028 Candida albicans. Bacterial strains were maintained on Mueller-Hinton agar plates, and Candida albicans was maintained on Sabouraud Dextrose agar plates.
(§2) Tryptic soy broth (TSB) was made by dissolving 27.5 grams of tryptic soy broth without dextrose (DIFCO Laboratories) in 1 liter of deionized water and sterilizing at 121° C. for 15 minutes. Solid agar (TSA) plates were made by dissolving 6.4 grams of tryptic soy broth and 12 grams of agar (purified grade, Fischer Scientific) in 800 mL of deionized water and sterilizing at 121° C. for 20 minutes. Aliquots (20 mL) of the homogeneous solution were then poured in sterile plastic petri dishes (100×15 mm, Fisher Scientific). Solutions of compounds were made by dissolving the HCl salt of the respective compound into an appropriate amount of deionized and sterilized water followed by microfiltration.
(§3) Aliquots of 1 mL of the suspension were added to test tubes containing 1 mL TSB and incrementally varied concentrations of cholic acid derivatives and/or erythromycin or novobiocin. In the sensitization experiments, erythromycin or novobiocin were added 15 minutes later than the cholic acid derivatives. The samples were subjected to stationary incubation at 37° C. for 24 hours. Sample turbidity was determined by measuring absorption at 760 nm (HP 8453 UV-Visible Chemstation, Hewlett Packard). Additionally, an alliquot from each of the samples showing no measurable turbidity was subcultured on TSA plates (alliquots were diluted to provide fewer than 300 CFU). Colonies that grew on the subculture after overnight incubation were counted and the number of CFU/mL in the samples were calculated. The calculated values were compared to the number of CFU/mL in the original inoculum.

E. coli (ATCC 10798) [2] = test: Sensitization to erythromycin (concentration lowering the MIC of erythromycin), E. coli (ATCC 10798); type: cell-based, Escherichia coli; conditions: for (a) Concentration required to lower the MIC of erythromycin from 70 to 1 μg/mL / (b) MBC with 1 μg/mL erythromycin / FIC values with erythromycin: Table 9, Escherichia coli (ATCC 10798)
Protocol: (§4) Alternatively, “fractional inhibitory concentration (FIC)” is also useful for determination of synergy between the compounds of the invention, or the compounds in combination with known antibiotics. FICs can be performed by checkerboard titrations of compounds in one dimension of a microtiter plate, and of antibiotics in the other dimension, for example. The FIC is calculated by looking at the impact of one antibiotic on the MIC of the other and vice versa. […] Preferably, an FIC of less than 0.5 is obtained for synergism. As used herein, FIC can be determined as follows:
as §3
(§5) Ability to permeabilize outer membrane: Compounds 11, 106, and 108-114 (FIG. 1) were tested for antibiotic activity. They were also tested for the ability to permeabilize the outer membrane of Gram-negative bacteria, causing sensitization to hydrophobic antibiotics that cannot cross the outer membrane. The permeabilization of the outer membrane was measured using erythromycin and novobiocin.
(§6) The MICs of erythromycin and novobiocin against E. coli (ATCC 10798) at 70 and >500 μg/mL were measured.

E. coli (ATCC 10798) [3] = test: Sensitization to novobiocin (concentration lowering the MIC of novobiocin), E. coli (ATCC 10798); type: cell-based, Escherichia coli; conditions: Table 9; Escherichia coli (ATCC 10798)
Protocol: as §4, §3, §5, §6

E. coli (ATCC 25922) = test: MIC and MBC measurement with E. coli (ATCC 25922); type: cell-based, Escherichia coli
Excerpt: as §1, §2
as §3, with “inoculum. […]” for “inoculum.”

[4] = system: Pseudomonas aeruginosa (ATCC 27853); test: MIC and MBC measurement with Pseudomonas aeruginosa (ATCC 27853); type: cell-based; conditions: P. aureginosa (ATCC 27853); starting MIC in sensitization tests
Excerpt: as §1, §2, §3

[5] = system: Staphylococcus aureus ATCC 25923; test: MIC and MBC measurement with Staphylococcus aureus ATCC 25923; type: cell-based; conditions: Table 10; Staphylococcus aureus ATCC 25923
Excerpt: as §1, §2
as §3, with “inoculum. […]” for “inoculum.”

[6] = Table 9, Escherichia coli (ATCC 10798)

Compound | MBC (E. coli (ATCC 10798) [1]; [6]) [µg/mL] | MIC (E. coli (ATCC 10798) [1]; [6]) [µg/mL] | (a) Concentration required to lower the MIC of erythromycin from 70 to 1 μg/mL (E. coli (ATCC 10798) [2]) [µg/mL] | (b) MBC with 1 μg/mL erythromycin (E. coli (ATCC 10798) [2]) [µg/mL] | FIC values with erythromycin (E. coli (ATCC 10798) [2]) | further results
COCCC[C@@H](C)[C@H]1CC[C@H]2[C@@H]3[C@H](OCCCN)C[C@@H]4C[C@H](OCCCN)CC[C@]4(C)[C@H]3C[C@H](OCCCN)[C@]12C [Compound 111] | 33 (≈ 56.9 µM) | 30 (≈ 51.7 µM) | 1.0 | 20 | 0.048 | (d) Concentration required to lower the MIC of novobiocin from >500 to 1 μg/mL (E. coli (ATCC 10798) [3]): 2.0 µg/mL; FIC values with novobiocin (E. coli (ATCC 10798) [3]): 0.069
CCCCCOCCC[C@@H](C)[C@H]1CC[C@H]2[C@@H]3[C@H](OCCCN)C[C@@H]4C[C@H](OCCCN)CC[C@]4(C)[C@H]3C[C@H](OCCCN)[C@]12C [Compound 113] | 5.0 (≈ 7.86 µM) | 3.0 (≈ 4.72 µM) | 0.8 | 2.0 | 0.28 | (d) Concentration required to lower the MIC of novobiocin from >500 to 1 μg/mL (E. coli (ATCC 10798) [3]): 1.0 µg/mL; FIC values with novobiocin (E. coli (ATCC 10798) [3]): 0.27
CCCCCCCCOCCC[C@@H](C)[C@H]1CC[C@H]2[C@@H]3[C@H](OCCCN)C[C@@H]4C[C@H](OCCCN)CC[C@]4(C)[C@H]3C[C@H](OCCCN)[C@]12C [Compound 114] | 10 (≈ 14.7 µM) | 3.0 (≈ 4.42 µM) | 3.0 | 3.0 | 1.0 | –
C[C@H](CCCOS(=O)(=O)O)[C@H]1CC[C@H]2[C@@H]3[C@H](OCCCN)C[C@@H]4C[C@H](OCCCN)CC[C@]4(C)[C@H]3C[C@H](OCCCN)[C@]12C [Compound 132] | – | – | – | – | – | MIC (E. coli (ATCC 10798) [1]; E. coli (ATCC 10798)): 60 µg/mL (≈ 92.9 µM); concentration required to lower the MIC of erythromycin to 1 μg/mL (E. coli (ATCC 10798) [2]; E. coli (ATCC 10798)): 4.0 µg/mL
C[C@H](CCCN)[C@H]1CC[C@H]2[C@@H]3[C@H](OCCCN)C[C@@H]4C[C@H](OCCCN)CC[C@]4(C)[C@H]3C[C@H](OCCCN)[C@]12C [Compound 135] | – | – | – | – | – | MBC (in words) (E. coli (ATCC 10798) [1]; FIG. 5, strain not named): relatively high; MIC (in words) (E. coli (ATCC 10798) [1]; FIG. 5, strain not named): relatively high
CC[C@H]1OC(=O)[C@H](C)[C@@H](O[C@H]2C[C@@](C)(OC)[C@@H](O)[C@H](C)O2)[C@H](C)[C@@H](O[C@@H]2O[C@H](C)C[C@H](N(C)C)[C@H]2O)[C@](C)(O)C[C@@H](C)C(=O)[C@H](C)[C@@H](O)[C@]1(C)O [erythromycin, reference compound] | – | – | – | – | – | MIC (E. coli (ATCC 25922); Escherichia coli, ATCC25922, E. coli (ATCC 25922), starting MIC in sensitization tests, read-out: MIC of erythromycin alone): 36 µg/mL; MIC of the antibiotic alone [4]: 240 μg/mL to 5 μg/mL with P. aureginosa (ATCC 27853).
CO[C@@H]1[C@@H](OC(N)=O)[C@@H](O)[C@H](Oc2ccc3c(O)c(NC(=O)c4ccc(O)c(CC=C(C)C)c4)c(=O)oc3c2C)OC1(C)C [novobiocin, reference compound] | – | – | – | – | – | MIC of the antibiotic alone [4]: >500 μg/mL to 1 μg/mL with P. aureginosa (ATCC 27853).
polymyxin B [PMB, reference compound] | – | – | – | – | – | MBC (E. coli (ATCC 25922); Table 10, Escherichia coli ATCC 25922): 1.8 µg/mL; MBC [5]: >100 µg/mL
